Test system: carrageenan-induced paw edema
Assay: Carrageenan-induced rat paw edema
Assay type: in vivo, Sprague Dawley rats
Details: therapeutic dosing: 3 mg/kg orally one hour after 0.375% carrageenan; FIG. 8
Source text: Carrageenan-induced paw edema has been extensively used in the evaluation of anti-inflammatory effects of various therapeutic agents and is a useful experimental system for assessing the efficacy of compounds to alleviate acute inflammation (Whiteley P E and Dalrymple S A, 1998. Models of inflammation: carrageenan-induced paw edema in the rat, in Current Protocols in Pharmacology. Enna S J, Williams M, Ferkany J W, Kenaki T, Porsolt R E and Sullivan J P, eds., pp 5.4.1-5.4.3, John Wiley & Sons, New York). The full development of the edema is neutrophil-dependent (Salvemini D. et al. (1996) Br. J. Pharmacol. 118: 829).
Female Sprague Dawley rats were used in groups of 8-12 and compounds of the invention were administered orally at up to 50 mg/kg 60 min prior to carrageenan exposure. The control group was administered orally an equal volume of vehicle (PBS). Edema in the paws was induced as previously described by injecting 50 μL of a 0.5% solution of carrageenan (Type IV Lambda, Sigma) in saline with a 27-G needle s.c. in the right foot pad. (See Whiteley P. E. and Dalrymple S. A. (1998), Models of inflammation: carrageenan-induced paw edema in the rat, in Current Protocols in Pharmacology, Enna S J, Williams M, Ferkany J W, Kenaki T, Porsolt R E and Sullivan J P, eds., pp 5.4.1-5.4.3, John Wiley & Sons, New York) The size of the tested foot of each animal was measured volumetrically with a plethysmometer immediately after injection of carrageenan solution and at various times up to 360 min after carrageenan induction.
Results of experiments with the compounds II-1-E, I-1-Z, and I-2-Z are shown in FIG. 1, FIG. 5, and FIG. 6, respectively.
Using the same procedure discussed above, the size of the foot of each animal was measured volumetrically before induction of edema, and at 1.5, 3, 4.5 and 6 h after the carrageenan injection. The absolute decreases in paw swelling at 6 h with 1, 10 and 50 mg/kg were 5±11%, 20±9% and 32±6% respectively. Statistical analyses were performed with repeated measures ANOVA followed by Dunnett's test for multiple comparisons.
Paw edema was induced in groups of eight Sprague Dawley rats by injecting 50 μL of a 0.375% solution of carrageenan X in saline, subcutaneously in the foot. After one hour animals were orally dosed once with PBS, compound I-1-Z at 50 mg/kg or with indomethacin at 3 mg/kg. The size of the paws were measured before induction of edema (baseline), and at 1.5, 3, 4.5 and 6 h after carrageenan injection. […] Statistical analyses were performed with repeated measures ANOVA followed by Dunnett's test for multiple comparisons.
Groups of eight Sprague Dawley rats were orally administered PBS, or 0.01, 0.1 or 1 mg/kg of compound I-1-Z. One hour later paw edema was induced in all animals by injecting 50 μL of a 0.5% solution of carrageenan X in saline, subcutaneously into the footpad. The size of the foot of each animal was measured volumetrically before induction of edema, and at 1.5, 3, 4.5 and 6 h after the carrageenan injection. The absolute decreases in paw swelling at 6 h with 0.1 and 1 mg/kg were 34±8 and 29±8% respectively. Statistical analyses were performed with repeated measures ANOVA followed by Dunnett's test for multiple comparisons.

Structure (SMILES): COc1ccc2c(c1)c(CC(=O)O)c(C)n2C(=O)c1ccc(Cl)cc1 [indomethacin, reference compound]
- inhibition of paw edema at 6 h: 67±8%
